From patent publication US20240279204A1, “NOVEL DIPHENAZINE COMPOUND, AND USE THEREOF FOR PREVENTING OR TREATING CANCER OR NEUROINFLAMMATORY DISEASES” (KOREA INSTITUTE OF OCEAN SCIENCE & TECHNOLOGY, priority 2021, published 2024)
Read-outs that look alike come from different tables or passages of the source.

What was measured:
NUGC-3 (stomach) = experiment: SRB cytotoxicity assay, NUGC-3; assay type: cell-based, human; details: for GI50: SRB assay, 48 hours
Procedure: (§1) A cytotoxicity test was evaluated using sulforhodamine B (SRB) assay on six human cancer cell lines. Human cancer cell lines, ACHN (kidney), NCI-H23 (lung), PC-3 (prostate), NUGC-3 (stomach), MDA-MB-231 (breast), and HCT-15 (colon) were purchased from American Type Culture Collection (ATCC). Cells were cultured in a RPMI 1640 medium added with 10% fetal bovine serum (FBS) at 37° C. in a 5% CO2 incubator. The cells (8×10^3 cells/well) were dispensed into a 96-well plate, cultured for one day, and then treated with Compounds 1-8 dissolved in 0.1% DMSO, (R)-(6-(1-((2-aminobenzoyl)oxy)ethyl)phenazine-1-carboxylic acid as Compound 9, and adriamycin as a positive control group. The cells were cultured for 48 hours, fixed with 50% trichloroacetic acid ([…]) and stained with 0.4% surfohodamine B dissolved in 1% acetic acid. Non-stained cells were removed by washing with 1% acetic acid, and cells bound to a protein were extracted with 10 mM Tris base (pH 10.5) to measure the optical density. Absorbance was measured at 540 nm using a microplate reader, and GI50 values were calculated using GraphPad Prism 4.0.

ACHN (kidney) = experiment: SRB cytotoxicity assay, ACHN; assay type: cell-based, human; details: 48 hours
Procedure: as §1

PC-3 (prostate) = experiment: SRB cytotoxicity assay, PC-3; assay type: cell-based, human; details: 48 hours
Procedure: as §1

HCT-15 (colon) = experiment: SRB cytotoxicity assay, HCT-15; assay type: cell-based, human
Procedure: as §1

MDA-MB-231 (breast) = experiment: SRB cytotoxicity assay, MDA-MB-231; assay type: cell-based, human
Procedure: as §1

NCI-H23 (lung) = experiment: SRB cytotoxicity assay, NCI-H23; assay type: cell-based, human
Procedure: as §1

[1] = system: LPS-induced BV-2 microglia; experiment: NO generation inhibition in LPS-induced BV-2 microglia (Griess reagent); assay type: cell-based; details: compound 1 hour then LPS 200 ng/mL for 24 hours, nitrite by Griess reagent, read-out: IC50 (μM), NO generation inhibitory activity by activated microglia
Procedure: (§2) NO generation to confirm anti-brain neuroinflammatory activity was evaluated by measuring a nitrite concentration in the medium using a Griess reagent, and the cell viability was evaluated using MTT assay. Briefly, BV-2 microglia were cultured in a Dulbecco's modified Eagle's medium (DMEM) supplemented with 5% heat-inactivated FBS and 50 µg/mL of penicillin-streptomycin in a 5% CO2 incubator at 37° C. A 96-well plate dispensed with pre-cultured cells (2.5×10^4 cells/mL) was treated with compounds at various concentrations (10, 20, 50, and 100 μM) for 1 hour, and treated with LPS (200 ng/mL) and cultured for 24 hours. The supernatant was mixed with a Griess reagent and cultured at room temperature for 10 minutes. The nitrite concentration was determined using a sodium nitrite standard solution prepared in a cell culture medium. Absorbance was measured at a wavelength of 540 nm with a microplate reader. To evaluate the cell viability, the 96-well plate dispensed with cells (2.5×10^4 cells/mL) was treated with compounds at various concentrations (10, 20, 50, and 100 μM) for 1 hour, and treated with LPS (200 ng/mL) and cultured for 24 hours. An MTT solution (0.5 mg/mL) was added to each well and cultured at 37° C. for 4 hours. The supernatant was removed, and the formed formazan crystals were dissolved in DMSO. The absorbance was measured at 550 nm using a microplate reader. To determine the IC50 value of Compound 6, NO generation and MTT assay were performed in the same manner as described above, only with different concentrations (0.25, 0.5, and 1 μM) (Table 4). The experiment was repeated 3 times.

BV-2 microglia = experiment: Cell viability of BV-2 microglia (MTT assay); assay type: cell-based; details: LPS 200 ng/mL, 24 hours
Procedure: as §2, with “To determine the IC50 value of Compound 6, NO generation and MTT assay were performed in the same manner as described above, only with different concentrations (0.25, 0.5, and 1 μM) (Table 4). The experiment was repeated 3 times.” left out

[2] = Homo sapiens, NUGC-3, read-out: GI50, NUGC-3
[3] = Homo sapiens, MDA-MB-231, 48 hours
[4] = Homo sapiens, NCI-H23, 48 hours

SMILES	IC50 ([1]; Mus musculus) [µM]	GI50 (NUGC-3 (stomach); [2]) [µM]	GI50 (ACHN (kidney); Homo sapiens, ACHN) [µM]	GI50 (PC-3 (prostate); Homo sapiens) [µM]	GI50 (HCT-15 (colon); Homo sapiens, HCT-15, 48 hours) [µM]	GI50 (MDA-MB-231 (breast); [3]) [µM]	GI50 (NCI-H23 (lung); [4]) [µM]	GI50 (NUGC-3 (stomach); Homo sapiens, NUGC-3, read-out: GI50 value, gastric cancer cells NUGC-3) [µM]	cytotoxicity stronger than Adriamycin, NUGC-3 (NUGC-3 (stomach); ratio of GI50 versus Adriamycin) [times]	cytotoxicity in cell viability test (BV-2 microglia)	GI50 (NUGC-3 (stomach); read-out: GI50, NUGC-3) [µM]	GI50 (ACHN (kidney)) [µM]	IC50 [1] [µM]	GI50 (PC-3 (prostate)) [µM]	GI50 (HCT-15 (colon); 48 hours) [µM]	GI50 (MDA-MB-231 (breast); 48 hours) [µM]	GI50 (NCI-H23 (lung); 48 hours) [µM]
COc1cccc2c1C(=O)c1c(O)c3c(c(O)c1C2=O)C[C@@](O)(C(=O)CO)C[C@@H]3O[C@H]1C[C@H](N)[C@H](O)[C@H](C)O1 [ADR, Adriamycin, reference compound]	–	0.15	0.17	0.16	0.17	0.15	0.16	–	–	–	–	–	–	–	–	–	–
C[C@H](c1cccc2nc3c(C(=O)O)cccc3nc12)c1ccc(C(=O)O)c2nc3cccc([C@@H](C)O)c3nc12 [Compound 1, 4-((R)-1-(6-carboxyphenazin-1-yl)ethyl)-6-((R)-1-hydroxyethyl)phenazine-1-carboxylic acid]	166	> 10	> 10	> 10	> 10	> 10	> 10	–	–	–	–	–	–	–	–	–	–
C[C@@H](c1cccc2nc3c(C(=O)O)cccc3nc12)c1ccc(C(=O)O)c2nc3cccc([C@@H](C)O)c3nc12 [Compound 2, 4-((S)-1-(6-carboxyphenazin-1-yl)ethyl)-6-((R)-1-hydroxyethyl)phenazine-1-carboxylic acid]	90.2	> 10	> 10	> 10	> 10	> 10	> 10	–	–	–	–	–	–	–	–	–	–
CC(=O)c1cccc2nc3c(C(=O)O[C@H](C)c4cccc5nc6c(C(=O)O)cccc6nc45)cccc3nc12 [Compound 7, (R)-6-(1-((6-acetylphenazine-1-carbonyl)oxy)ethyl)phenazine-1-carboxylic acid]	–	0.0349	0.0717	0.0465	0.0601	0.0523	0.0426	–	–	–	–	–	–	–	–	–	–
C[C@@H](O)c1cccc2nc3c(C(=O)O)cccc3nc12 [Compound 8, (R)-Saphenic acid]	–	–	–	–	–	–	–	–	–	–	> 10	> 10	16.3	> 10	> 10	> 10	> 10
C[C@@H](OC(=O)c1ccccc1N)c1cccc2nc3c(C(=O)O)cccc3nc12 [Compound 9]	–	–	–	–	–	–	–	–	–	–	> 10	> 10	23.5	> 10	> 10	> 10	> 10

Continued, in another order:

IC50 ([1]; Mus musculus) [µM]	SMILES	GI50 (NUGC-3 (stomach); [2]) [µM]	GI50 (ACHN (kidney); Homo sapiens, ACHN) [µM]	GI50 (PC-3 (prostate); Homo sapiens) [µM]	GI50 (HCT-15 (colon); Homo sapiens, HCT-15, 48 hours) [µM]	GI50 (MDA-MB-231 (breast); [3]) [µM]	GI50 (NCI-H23 (lung); [4]) [µM]	GI50 (NUGC-3 (stomach); Homo sapiens, NUGC-3, read-out: GI50 value, gastric cancer cells NUGC-3) [µM]	cytotoxicity stronger than Adriamycin, NUGC-3 (NUGC-3 (stomach); ratio of GI50 versus Adriamycin) [times]	cytotoxicity in cell viability test (BV-2 microglia)	GI50 (NUGC-3 (stomach); read-out: GI50, NUGC-3) [µM]	GI50 (ACHN (kidney)) [µM]	IC50 [1] [µM]	GI50 (PC-3 (prostate)) [µM]	GI50 (HCT-15 (colon); 48 hours) [µM]	GI50 (MDA-MB-231 (breast); 48 hours) [µM]	GI50 (NCI-H23 (lung); 48 hours) [µM]
34.7	CC(=O)c1cccc2nc3c(C(=O)O)ccc([C@H](C)c4cccc5nc6c(C(=O)O)cccc6nc45)c3nc12 [Compound 3, (R)-6-acetyl-4-(1-(6-carboxyphenazin-1-yl)ethyl)phenazine-1-carboxylic acid]	> 10	> 10	> 10	> 10	> 10	> 10	–	–	–	–	–	–	–	–	–	–
126	C[C@@H](c1cc(C(=O)O)c2nc3cccc([C@@H](C)O)c3nc2c1)c1cccc2nc3c(C(=O)O)cccc3nc12 [Compound 4, 3-((S)-1-(6-carboxyphenazin-1-yl)ethyl)-6-((R)-1-hydroxyethyl)phenazine-1-carboxylic acid]	> 10	> 10	> 10	> 10	> 10	> 10	–	–	–	–	–	–	–	–	–	–
27.4	C[C@H](c1cc([C@@H](C)O)c2nc3cccc(C(=O)O)c3nc2c1)c1cccc2nc3c(C(=O)O)cccc3nc12 [Compound 5, 8-((R)-1-(6-carboxyphenazin-1-yl)ethyl)-6-((R)-1-hydroxyethyl)phenazine-1-carboxylic acid]	> 10	> 10	> 10	> 10	> 10	> 10	–	–	–	–	–	–	–	–	–	–
0.3	C[C@@H](O)c1cccc2nc3c(C(=O)O[C@H](C)c4cccc5nc6c(C(=O)O)cccc6nc45)cccc3nc12 [Compound 6, 6-((R)-1-((6-((R)-1-hydroxyethyl)phenazine-1-carbonyl)oxy)ethyl)phenazine-1-carboxylic acid]	0.0077	0.0135	0.0096	0.0096	0.0096	0.0096	0.0077	19	strong cytotoxicity up to a concentration of 1 μM	–	–	–	–	–	–	–
